*1 amine or outer side, *2 acyl side, *3 side chain or, on linkers, in order; H or OH if unused. Where a SMILES comes first, the peptide text is derived from it. [ ]: non-standard residue; d: D form. The star is where a group is joined. X1 = O=C([C@@H](O)[C@H](Cc1ccccc1)N[*:1])[*:2]; Thz(5,5-Me2) = CC1(C)SCN[C@@H]1C(=O)O; X2 = N[C@@H](Cc1ccccc1)[C@H](O)C(=O)*
Tests used:
[1] = tested on: Human T-cell leukemia virus type I; test: Inhibition of human recombinant HTLV1 protease at 100 uM
[2] = tested on: Human immunodeficiency virus 1; test: Inhibition of recombinant HIV1 protease at 50 nM

Row | inhibition [1] [%] | inhibition [2] [%] | Structure (SMILES)
1 | < 30 | < 30 | CC(C)[C@H](NC(=O)[C@H](CCC(N)=O)NC(=O)[C@@H]1CCCN1)C(=O)N[C@@H](Cc1ccccc1)[C@H](O)C(=O)N1CCC[C@H]1C(N)=O (H-PQV[X1]P-NH2)
2 | 74 | 95 | CSCC[C@H](NC(=O)[C@@H](NC(=O)[C@H]1N(C(=O)[C@@H](O)[C@H](Cc2ccccc2)NC(=O)[C@@H](NC(=O)[C@H](Cc2ccccc2)NC(C)=O)C(C)C)CSC1(C)C)C(C)C)C(N)=O (Ac-FV[X1][Thz(5,5-Me2)]VM-NH2)
3 | < 30 | 78 | CSCC[C@H](NC(=O)[C@@H](NC(=O)[C@H]1N(C(=O)[C@@H](O)[C@H](Cc2ccccc2)NC(=O)[C@@H](NC(=O)[C@H](CCC(N)=O)NC(C)=O)C(C)C)CSC1(C)C)[C@@H](C)O)C(N)=O (Ac-QV[X1][Thz(5,5-Me2)]TM-NH2)
4 | 83 | 99 | CSCC[C@H](NC(=O)[C@@H](NC(=O)[C@H]1N(C(=O)[C@@H](O)[C@H](Cc2ccccc2)NC(=O)[C@@H](NC(=O)[C@H](CC(C)C)NC(C)=O)C(C)C)CSC1(C)C)C(C)C)C(N)=O (Ac-LV[X1][Thz(5,5-Me2)]VM-NH2)
5 | 86 | 95 | CC[C@H](C)[C@H](NC(C)=O)C(=O)N[C@H](C(=O)N[C@@H](Cc1ccccc1)[C@H](O)C(=O)N1CSC(C)(C)[C@H]1C(=O)N[C@H](C(=O)N[C@@H](CCC(N)=O)C(N)=O)C(C)C)C(C)C (Ac-IV[X1][Thz(5,5-Me2)]VQ-NH2)
6 | 94 | < 30 | CSCC[C@H](NC(=O)[C@@H](NC(=O)[C@@H]1CCCN1C(=O)[C@@H](O)[C@H](Cc1ccccc1)NC(=O)[C@@H](NC(=O)[C@H](CCC(N)=O)NC(=O)[C@@H]1CCCN1)C(C)C)C(C)C)C(=O)N[C@@H](Cc1cnc[nH]1)C(=O)O (H-PQV[X1]PVMH-OH)
7 | 86 | < 30 | CSCC[C@H](NC(=O)[C@@H](NC(=O)[C@@H]1CCCN1C(=O)[C@@H](O)[C@H](Cc1ccccc1)NC(=O)[C@@H](NC(=O)[C@H](CCC(N)=O)NC(=O)[C@@H]1CCCN1)C(C)C)C(C)C)C(N)=O (H-PQV[X1]PVM-NH2)
8 | < 30 | < 30 | CSCC[C@H](NC(=O)[C@@H](NC(=O)[C@@H]1CCCN1C(=O)[C@@H](O)[C@H](Cc1ccccc1)NC(C)=O)C(C)C)C(=O)N[C@@H](Cc1c[nH]cn1)C(=O)O (Ac-[X1]PVMH-OH)
9 | 78 | 97 | CC[C@H](C)[C@H](NC(=O)[C@@H](NC(=O)[C@H]1N(C(=O)[C@@H](O)[C@H](Cc2ccccc2)NC(=O)[C@@H](NC(=O)[C@@H](NC(C)=O)[C@@H](C)CC)C(C)C)CSC1(C)C)C(C)C)C(N)=O (Ac-IV[X1][Thz(5,5-Me2)]VI-NH2)
10 | < 30 | < 30 | CC(C)[C@H](NC(=O)[C@@H]1CCCN1C(=O)[C@@H](O)[C@H](Cc1ccccc1)NC(=O)[C@@H](NC(=O)[C@H](CCC(N)=O)NC(=O)[C@@H]1CCCN1)C(C)C)C(N)=O (H-PQV[X1]PV-NH2)
11 | < 30 | < 30 | CSCC[C@H](NC(=O)[C@@H](NC(=O)[C@@H]1CCCN1C(=O)[C@@H](O)[C@H](Cc1ccccc1)NC(=O)[C@@H](N)C(C)C)C(C)C)C(=O)N[C@@H](Cc1c[nH]cn1)C(=O)O (H-V[X1]PVMH-OH)
12 | < 30 | 92 | CSCC[C@H](NC(=O)[C@@H](CSC)NC(=O)[C@H]1N(C(=O)[C@@H](O)[C@H](Cc2ccccc2)NC(=O)[C@@H](NC(=O)[C@H](CCC(N)=O)NC(C)=O)C(C)C)CSC1(C)C)C(N)=O
13 | 87 | 98 | CC[C@H](C)[C@H](NC(C)=O)C(=O)N[C@H](C(=O)N[C@@H](Cc1ccccc1)[C@H](O)C(=O)N1CSC(C)(C)[C@H]1C(=O)N[C@H](C(=O)N[C@@H](CCSC)C(N)=O)C(C)C)C(C)C (Ac-IV[X1][Thz(5,5-Me2)]VM-NH2)
14 | 77 | 95 | CSCC[C@H](NC(=O)[C@@H](NC(=O)[C@H]1N(C(=O)[C@@H](O)[C@H](Cc2ccccc2)NC(=O)[C@@H](NC(=O)[C@@H](NC(C)=O)C(C)C)C(C)C)CSC1(C)C)C(C)C)C(N)=O (Ac-VV[X1][Thz(5,5-Me2)]VM-NH2)
15 | 70 | 96 | CC[C@H](C)[C@H](NC(C)=O)C(=O)N[C@H](C(=O)N[C@@H](Cc1ccccc1)[C@H](O)C(=O)N1CSC(C)(C)[C@H]1C(=O)N[C@H](C(=O)N[C@H](C(N)=O)C(C)C)C(C)C)C(C)C (Ac-IV[X1][Thz(5,5-Me2)]VV-NH2)
16 | > 99 | 58 | CSCC[C@H](NC(=O)[C@@H](NC(=O)[C@H]1N(C(=O)[C@@H](O)[C@H](Cc2ccccc2)NC(=O)[C@@H](NC(=O)[C@H](CCC(N)=O)NC(=O)[C@@H]2CCCN2)C(C)C)CSC1(C)C)C(C)C)C(=O)N[C@@H](Cc1c[nH]cn1)C(=O)O (H-PQV[X1][Thz(5,5-Me2)]VMH-OH)
17 | 54 | 95 | CC[C@H](C)[C@H](NC(C)=O)C(=O)N[C@H](C(=O)N[C@@H](Cc1ccccc1)[C@H](O)C(=O)N1CSC(C)(C)[C@H]1C(=O)N[C@H](C(=O)N[C@@H](CC(C)C)C(N)=O)C(C)C)C(C)C (Ac-IV[X1][Thz(5,5-Me2)]VL-NH2)
18 | 85 | 95 | CC[C@H](C)[C@H](NC(=O)[C@H](CCC(N)=O)NC(C)=O)C(=O)N[C@@H](Cc1ccccc1)[C@H](O)C(=O)N1CSC(C)(C)[C@H]1C(=O)N[C@H](C(=O)N[C@@H](CCSC)C(N)=O)C(C)C (Ac-QI[X1][Thz(5,5-Me2)]VM-NH2)
19 | 74 | 95 | CC[C@H](C)[C@H](NC(=O)[C@H]1N(C(=O)[C@@H](O)[C@H](Cc2ccccc2)NC(=O)[C@@H](NC(=O)[C@H](CCC(N)=O)NC(C)=O)C(C)C)CSC1(C)C)C(=O)N[C@@H](CCSC)C(N)=O (Ac-QV[X1][Thz(5,5-Me2)]IM-NH2)
20 | 84 | 98 | CC[C@H](C)[C@H](NC(C)=O)C(=O)N[C@H](C(=O)N[C@@H](Cc1ccccc1)[C@H](O)C(=O)N1CSC(C)(C)[C@H]1C(=O)N[C@H](C(=O)N[C@@H](Cc1ccccc1)C(N)=O)C(C)C)C(C)C (Ac-IV[X1][Thz(5,5-Me2)]VF-NH2)
21 | 49 | < 30 | CSCC[C@H](NC(=O)[C@@H](NC(=O)[C@@H]1CCCN1C(=O)[C@@H](O)[C@H](Cc1ccccc1)NC(=O)[C@H](NC(=O)[C@@H](CCC(N)=O)NC(C)=O)C(C)C)C(C)C)C(=O)N[C@@H](Cc1c[nH]cn1)C(=O)O
22 | 56 | 96 | CSCC[C@H](NC(=O)[C@@H](NC(=O)[C@H]1N(C(=O)[C@@H](O)[C@H](Cc2ccccc2)NC(=O)[C@@H](NC(=O)[C@H](C)NC(C)=O)C(C)C)CSC1(C)C)C(C)C)C(N)=O (Ac-AV[X1][Thz(5,5-Me2)]VM-NH2)
23 | < 30 | < 30 | CSCC[C@H](NC(=O)[C@@H](NC(=O)[C@@H]1CCCN1C(=O)[C@@H](O)[C@H](Cc1ccccc1)NC(=O)[C@H](NC(=O)[C@H](N)CCC(N)=O)C(C)C)C(C)C)C(=O)N[C@@H](Cc1c[nH]cn1)C(=O)O
24 | 51 | 96 | CSCC[C@H](NC(=O)[C@@H](NC(=O)[C@H]1N(C(=O)[C@@H](O)[C@H](Cc2ccccc2)NC(=O)[C@H](CSC)NC(=O)[C@H](CCC(N)=O)NC(C)=O)CSC1(C)C)C(C)C)C(N)=O (Ac-QC(Me)[X1][Thz(5,5-Me2)]VM-NH2)
25 | 30 | 84 | CSCC[C@H](NC(=O)[C@H](CC(C)C)NC(=O)[C@H]1N(C(=O)[C@@H](O)[C@H](Cc2ccccc2)NC(=O)[C@@H](NC(=O)[C@H](CCC(N)=O)NC(C)=O)C(C)C)CSC1(C)C)C(N)=O (Ac-QV[X1][Thz(5,5-Me2)]LM-NH2)
26 | < 30 | < 30 | CSCC[C@H](NC(=O)[C@@H](NC(=O)[C@@H]1CCCN1C(=O)[C@@H](O)[C@@H](N)Cc1ccccc1)C(C)C)C(=O)N[C@@H](Cc1c[nH]cn1)C(=O)O (X2-PVMH-OH)
27 | 54 | 83 | CSCC[C@H](NC(=O)[C@@H](NC(=O)[C@H]1N(C(=O)[C@@H](O)[C@H](Cc2ccccc2)NC(=O)[C@H](CC(C)C)NC(=O)[C@H](CCC(N)=O)NC(C)=O)CSC1(C)C)C(C)C)C(N)=O (Ac-QL[X1][Thz(5,5-Me2)]VM-NH2)
28 | 66 | 96 | CSCC[C@H](NC(=O)[C@@H](NC(=O)[C@H]1N(C(=O)[C@@H](O)[C@H](Cc2ccccc2)NC(=O)[C@@H](NC(=O)[C@H](CCC(N)=O)NC(C)=O)C(C)C)CSC1(C)C)C(C)C)C(N)=O (Ac-QV[X1][Thz(5,5-Me2)]VM-NH2)
29 | < 30 | < 30 | CSCC[C@H](NC(=O)[C@@H](NC(=O)[C@@H]1CCCN1C(=O)[C@@H](O)[C@H](Cc1ccccc1)NC(=O)[C@@H](NC(C)=O)C(C)C)C(C)C)C(=O)N[C@@H](Cc1c[nH]cn1)C(=O)O (Ac-V[X1]PVMH-OH)

Row | Structure (SMILES) | inhibition [1] [%] | inhibition [2] [%]
30 | CC[C@H](C)[C@H](NC(C)=O)C(=O)N[C@H](C(=O)N[C@@H](Cc1ccccc1)[C@H](O)C(=O)N1CSC(C)(C)[C@H]1C(=O)N[C@H](C(=O)N[C@@H](CCSC)C(N)=O)[C@@H](C)CC)[C@@H](C)CC (Ac-II[X1][Thz(5,5-Me2)]IM-NH2) | 94 | 98

— ChEMBL document CHEMBL1148015, “Chipping at large, potent human T-cell leukemia virus type 1 protease inhibitors to uncover smaller, equipotent inhibitors” (Bioorg Med Chem Lett, 2007)
